According to EP4678179A1, “PHARMACEUTICAL COMPOSITION CONTAINING ACTIVE SULFUR MOLECULE” (Tohoku University, priority 2023, dated 2024):

Experiments:
Rag2-/- host mice = test: T cell transfer enteritis (IBD) model: naive CD4+ T cells transferred into Rag2-/- mice, GSSSG administered intraperitoneally; type: in vivo
Source text: CD4^+ T cells were magnetically sorted from splenocytes of young mice (from 8 to 12 weeks old). Then, naive CD4^+ T cells (CD3^+ CD4^+ CD25^- CD44^lo CD62L^hi or CD3^+ CD4^+ Foxp3-RFP^- CD44^lo CD62L^hi) were sorted using FACS AriaII (BD Bioscience) based on fluorescently labeled monoclonal antibodies or reporter fluorescent proteins. In experiments to confirm homeostatic maintenance proliferation, naive CD4^+ T cells were labeled with carboxyfluorescein succinimidyl ester (CFSE) (Thermo Fisher Scientific), and were injected into the tail veins of CD45.1 host mice irradiated with a sublethal dose (5.5 Gy), at 1 × 10^6 cells per mouse 1 day before transfer. In experiments to induce enteritis, wild-type or Cars2^+/- naive CD4^+ T cells were injected into the tail veins of Rag2^-/- mice at 3 × 10^5 cells per mouse. In experiments to evaluate the function of regulatory T cells, Cars2^+/+ naive CD4^+ T cells were co-transferred with regulatory T cells derived from Cars2^+/- Foxp3-RFP reporter mice (1 × 10^5 cells/mouse). In GSSSG administration experiments, GSSSG (400 nmol/mouse) was intraperitoneally administered to the Rag2^-/- host mice every day from the same day as the day when the naive CD4^+ T cells were transferred.
At the stage where from 3 to 4 weeks had elapsed after the transfer of the naive T cells, the large intestines of the Rag2^-/- host mice were collected and fixed with 10% formalin. After the fixed samples were embedded in paraffin, 5-µm-thick sections were cut out and subjected to hematoxylin-eosin staining (H & E) and immunostaining with a CD4 monoclonal antibody (mAb) (EPR19514). The histological inflammation score was classified into three groups with reference to a previous report (Biswas et al., Nat Commun 9, 1779 (2018)).
Therefore, using the same IBD model, wild-type and Cars2+/- naive CD4+ T cells were adoptively transferred to Rag2-/- mice, and the properties of the donor cells and the IBD pathological conditions of the host mice were observed over time. […] Since there was no significant difference in proportion of dead cells between the two groups (FIGS. 4F, 5C, and 5F), the reason for the increase in number of accumulated cytokine-producing Cars2+/- T cells is considered to be enhanced homeostatic maintenance proliferation of the donor cells.
To confirm whether CARS2 suppresses the proliferation of enteritis pathogenic T cells via active sulfur, GSSSG, which is a donor of an active sulfur molecule, was administered to Rag2-/- host mice, and as a result, the body weight loss of the individuals transplanted with Cars2+/- CD4+ T cells was suppressed, and the reduction in histological enteritis images was observed (FIGS. 8A to 8C).

human CD4+ T cells = test: Cell cycle analysis of human naive CD4+ T cells stimulated with CD3/CD28 in the presence or absence of GSSSG; type: cell-based; conditions: naive CD4+ T cells from peripheral bloods of healthy individuals; CD3/CD28 stimulation; GSSSG 1 µM; 48 hours; FIG. 10E
Method: Peripheral mononuclear blood cells were isolated using Vacutainer (BD Bioscience), and naive CD4^+ T cells (CD3^+ CD4^+ CD25^- CD45RO^- CD45RA^+) were purified from the isolated mononuclear cells using FACS AriaII (BD Bioscience). The purified naive CD4^+ T cells were seeded in a 96-well plate at 5 × 10^4 cells per well, and stimulated with Dynabeads™ Human T-Activator CD3/CD28 (Thermo Fischer Scientific) in an RPMI medium (10% FCS) in the presence or absence of GSSSG (1 µM) for 48 hours.
Finally, the involvement of active sulfur in the regulation of the proliferation of human CD4+ T cells was examined through in vitro cell culture. Specifically, naive CD4+ T cells purified from peripheral bloods of healthy individuals were stimulated with CD3/CD28 in the presence and absence of GSSSG to induce the proliferative response, and the cell cycle was analyzed 48 hours after the stimulation. […] Thus, it was shown that CARS2-dependent active sulfur metabolism also suppresses the cell cycle entry also in human CD4+ T cells and limits the proliferation of the same cells.

HDM-treated mice = test: HDM-induced mouse asthma model (type 2 airway inflammation), intraperitoneal GSSSG; type: in vivo
Method: Asthma model mice were created according to a previous report (Ishii et al., Scandinavian journal of immunology. 2018; 87 (3)). Specifically, as shown in the FIG. 5A, mice were intranasally administered with HDM extract (at the indicated doses in PBS) under isoflurane anesthesia to induce asthma.
Twenty four (24) hours after the last dose of HDM, the mice were anesthetized and sacrificed by exsanguination. The alveoli were washed three times with 500 µL of 10 mM PBS, and the bronchial alveolar lavage fluid (BALF) was collected. For 5 minutes, […], then the supernatant was stored for biochemical analysis, and the cellular pellet was resuspended in 500 µL of 10 mM PBS. The total number of cells was counted using a Scepter handheld automated cell counter (Millipore), followed by cytospin specimen preparation and staining with Diff-Quick (Sysmex) or Eosinostain-Torii (Torii Pharmaceutical).
Isolation of cells from mouse lung tissue and FCM were performed according to previous reports (Gomez et al., American journal of respiratory cell and molecular biology. 2015; 52 (3): 349-64., and Yamada et al., American journal of respiratory and critical care medicine. 2011; 183 (10): 1391-401.). For histological examination of lung inflammation, lung sections were stained with hematoxylin and eosin (HE). Lung inflammation was semi-quantified and evaluated according to a previous report.
It was investigated whether intraperitoneal administration of GSSSG in vivo suppresses an HDM-induced type 2 airway inflammation. […] Thus, GSSSG has therapeutic potential in CD4 T cell-mediated type 2 inflammatory diseases, including asthma, by organizing TCR signaling.

SMILES: N[C@@H](CCC(=O)N[C@@H](CSSSC[C@H](NC(=O)CC[C@H](N)C(=O)O)C(=O)NCC(=O)O)C(=O)NCC(=O)O)C(=O)O [GSSSG, glutathione trisulfide]
- therapeutic effect (Rag2-/- host mice; Rag2-/- host mice transfused with wild-type CD4+ T cells, GSSSG 400 nmol/mouse intraperitoneally every day, FIGS. 9A to 9C): no significant therapeutic effect
- body weight loss (Rag2-/- host mice; Rag2-/- host mice transplanted with Cars2+/- CD4+ T cells, GSSSG 400 nmol/mouse intraperitoneally every day, FIG. 8A): suppressed
- histological enteritis images (Rag2-/- host mice; Rag2-/- host mice transplanted with Cars2+/- CD4+ T cells, GSSSG 400 nmol/mouse intraperitoneally every day, large intestine, H & E and CD4 immunostaining, FIGS. 8B, 8C): reduction
- enteritis induced by Cars2+/- CD4+ T cells (Rag2-/- host mice; figure legend of FIG. 8, administration of GSSSG to host mice): improved
- cell cycle entry of the naive CD4+ T cells (human CD4+ T cells): significantly suppressed
- accumulation of inflammatory cells, particularly eosinophils, in the airways (HDM-treated mice; both Cars2+/- mice and WT mice, HDM-treated, 1 mM GSSSG intraperitoneal, BALF, FIG. 14E): significantly suppressed
- lung inflammation (HDM-treated mice; both HDM-treated Cars2+/- mice and HDM-treated WT mice, GSSSG treatment, HE-stained lung tissue, FIG. 14F): significantly reduced
- goblet cell hyperplasia (HDM-treated mice; both HDM-treated Cars2+/- mice and HDM-treated WT mice, GSSSG treatment, PAS-stained lung tissue, FIG. 14G): significantly reduced
